Laboratory results taken from ChEMBL document CHEMBL4414586, “Identification of CNS-Penetrant Aryl Sulfonamides as Isoform-Selective NaV1.6 Inhibitors with Efficacy in Mouse Models of Epilepsy” (J Med Chem, 2019).

Columns and labels:
[1] = physchem; conditions: 1-octanol/PBS, pH 7.4
[2] = Ratio of drug uptake in 129/C57BL/6J mouse brain to plasma at 30 mg/kg, po after 2 hrs by UHPLC/MS/MS analysis; format: ADME, organism-based; conditions: brain and plasma, read-out: BPR

| Compound | logD at 1 h [1] | Kp at 2 h [2] |
| --- | --- | --- |
| O=S(=O)(Nc1cscn1)c1cc(Cl)c(NCc2cc(CN3CCC3)ccc2F)cc1F | 1.4 |  |
| COc1ccc(F)c([C@H](C)Nc2cc(F)c(S(=O)(=O)Nc3cscn3)cc2Cl)c1 | 3.4 | 0.28 |
| C[C@H](Nc1cc(F)c(S(=O)(=O)Nc2cscn2)cc1Cl)c1cc(CN2CCC2)ccc1F | 1.5 |  |
